Reference: ChEMBL document CHEMBL5291721, “A preclinical secondary pharmacology resource illuminates target-adverse drug reaction associations of marketed drugs” (Nat Commun, 2023)

Tests used:
[1] = biological target: T1, Gastrin/cholecystokinin type B receptor (Homo sapiens, UniProt P32239)
T1 sequence (P32239 whole entry): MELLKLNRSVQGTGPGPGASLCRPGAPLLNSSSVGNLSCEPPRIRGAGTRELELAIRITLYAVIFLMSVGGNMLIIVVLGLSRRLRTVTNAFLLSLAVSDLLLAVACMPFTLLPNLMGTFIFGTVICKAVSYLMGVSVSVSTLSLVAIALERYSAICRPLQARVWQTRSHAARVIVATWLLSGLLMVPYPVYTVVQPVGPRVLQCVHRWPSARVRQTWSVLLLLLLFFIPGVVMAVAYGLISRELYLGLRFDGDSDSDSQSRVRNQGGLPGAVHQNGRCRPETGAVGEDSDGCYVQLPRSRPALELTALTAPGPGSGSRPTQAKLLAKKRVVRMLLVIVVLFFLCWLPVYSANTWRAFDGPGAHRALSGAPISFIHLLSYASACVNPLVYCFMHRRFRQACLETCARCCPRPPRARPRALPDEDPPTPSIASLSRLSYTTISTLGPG

Vasopressin V2 receptor = Vasopressin V2 receptor (Homo sapiens, UniProt P30518)
Adenosine receptor A3 = biological target: T2, Adenosine receptor A3 (Homo sapiens, UniProt P0DMS8)
T2 sequence (P0DMS8 whole entry): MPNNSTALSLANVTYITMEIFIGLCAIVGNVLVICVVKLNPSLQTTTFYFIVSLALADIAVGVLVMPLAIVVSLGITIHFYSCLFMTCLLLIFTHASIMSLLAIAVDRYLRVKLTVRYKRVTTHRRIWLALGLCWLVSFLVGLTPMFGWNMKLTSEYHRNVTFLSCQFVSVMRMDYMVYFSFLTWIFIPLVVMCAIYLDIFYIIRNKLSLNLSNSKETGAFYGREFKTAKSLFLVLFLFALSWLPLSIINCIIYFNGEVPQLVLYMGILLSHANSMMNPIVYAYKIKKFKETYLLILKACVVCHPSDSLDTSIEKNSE

Thromboxane A2 receptor = biological target: T3, Thromboxane A2 receptor (Homo sapiens, UniProt P21731); type: functional, cell-based
T3 sequence (P21731 whole entry): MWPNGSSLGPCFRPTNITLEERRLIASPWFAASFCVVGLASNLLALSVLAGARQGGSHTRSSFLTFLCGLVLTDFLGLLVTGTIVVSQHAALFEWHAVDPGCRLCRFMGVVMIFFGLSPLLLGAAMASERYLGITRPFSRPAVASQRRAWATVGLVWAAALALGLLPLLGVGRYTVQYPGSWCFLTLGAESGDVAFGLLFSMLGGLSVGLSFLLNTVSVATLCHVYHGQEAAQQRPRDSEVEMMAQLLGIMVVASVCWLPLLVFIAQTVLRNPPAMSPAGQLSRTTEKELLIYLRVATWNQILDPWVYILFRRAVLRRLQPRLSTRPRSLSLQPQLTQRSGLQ

Glucocorticoid receptor = biological target: T4, Glucocorticoid receptor (Homo sapiens, UniProt P04150)
T4 sequence (P04150 whole entry): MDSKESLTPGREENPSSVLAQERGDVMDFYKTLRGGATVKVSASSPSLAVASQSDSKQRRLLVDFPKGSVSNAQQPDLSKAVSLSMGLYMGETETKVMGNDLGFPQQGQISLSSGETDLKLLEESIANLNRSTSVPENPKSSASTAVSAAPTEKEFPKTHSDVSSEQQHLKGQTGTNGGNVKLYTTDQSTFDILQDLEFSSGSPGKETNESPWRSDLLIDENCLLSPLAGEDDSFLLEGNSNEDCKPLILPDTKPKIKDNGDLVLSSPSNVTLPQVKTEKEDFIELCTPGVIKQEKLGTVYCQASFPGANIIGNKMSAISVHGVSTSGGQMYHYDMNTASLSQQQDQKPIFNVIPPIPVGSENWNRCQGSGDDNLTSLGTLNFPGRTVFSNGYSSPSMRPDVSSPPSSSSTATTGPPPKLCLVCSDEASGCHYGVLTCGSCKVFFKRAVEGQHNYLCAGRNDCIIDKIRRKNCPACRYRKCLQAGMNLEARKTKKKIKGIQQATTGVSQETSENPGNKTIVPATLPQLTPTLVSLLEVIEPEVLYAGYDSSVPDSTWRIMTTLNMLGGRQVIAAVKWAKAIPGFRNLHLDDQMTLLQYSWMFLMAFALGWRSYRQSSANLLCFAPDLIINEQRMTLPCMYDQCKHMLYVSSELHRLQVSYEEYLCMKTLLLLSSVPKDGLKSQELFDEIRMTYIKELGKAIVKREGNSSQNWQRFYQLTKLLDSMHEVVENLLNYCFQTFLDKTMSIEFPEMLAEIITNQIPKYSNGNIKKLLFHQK

[2] = biological target: T5, 5-hydroxytryptamine receptor 1A (Homo sapiens, UniProt P08908)
T5 sequence (P08908 whole entry): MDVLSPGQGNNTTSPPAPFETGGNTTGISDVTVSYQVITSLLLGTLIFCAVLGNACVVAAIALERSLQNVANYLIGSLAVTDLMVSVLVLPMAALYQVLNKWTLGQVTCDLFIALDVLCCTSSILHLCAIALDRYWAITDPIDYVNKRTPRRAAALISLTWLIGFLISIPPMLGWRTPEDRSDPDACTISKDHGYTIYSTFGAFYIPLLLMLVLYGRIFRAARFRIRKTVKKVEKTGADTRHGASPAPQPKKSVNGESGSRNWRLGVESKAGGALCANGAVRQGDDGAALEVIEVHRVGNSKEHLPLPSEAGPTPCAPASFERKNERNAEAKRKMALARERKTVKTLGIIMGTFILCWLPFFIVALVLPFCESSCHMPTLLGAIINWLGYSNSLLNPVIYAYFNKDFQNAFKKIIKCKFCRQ

Vasopressin V1a receptor = Vasopressin V1a receptor (Homo sapiens, UniProt P37288)
Note: assay procedure not described here.

Chain of Vasopressin V1a receptor (P37288 whole entry): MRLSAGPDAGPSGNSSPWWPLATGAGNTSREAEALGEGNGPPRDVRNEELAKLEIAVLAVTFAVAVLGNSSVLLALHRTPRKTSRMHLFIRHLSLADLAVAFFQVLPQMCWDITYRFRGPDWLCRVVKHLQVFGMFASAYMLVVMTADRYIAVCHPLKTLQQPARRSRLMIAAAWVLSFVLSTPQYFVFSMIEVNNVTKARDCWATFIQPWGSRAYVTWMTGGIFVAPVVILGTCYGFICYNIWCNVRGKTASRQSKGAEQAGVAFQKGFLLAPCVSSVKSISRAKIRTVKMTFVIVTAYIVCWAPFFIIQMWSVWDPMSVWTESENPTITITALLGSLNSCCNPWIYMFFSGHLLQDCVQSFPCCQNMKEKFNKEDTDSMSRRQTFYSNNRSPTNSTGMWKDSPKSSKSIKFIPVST
Chain of Vasopressin V2 receptor (P30518 whole entry): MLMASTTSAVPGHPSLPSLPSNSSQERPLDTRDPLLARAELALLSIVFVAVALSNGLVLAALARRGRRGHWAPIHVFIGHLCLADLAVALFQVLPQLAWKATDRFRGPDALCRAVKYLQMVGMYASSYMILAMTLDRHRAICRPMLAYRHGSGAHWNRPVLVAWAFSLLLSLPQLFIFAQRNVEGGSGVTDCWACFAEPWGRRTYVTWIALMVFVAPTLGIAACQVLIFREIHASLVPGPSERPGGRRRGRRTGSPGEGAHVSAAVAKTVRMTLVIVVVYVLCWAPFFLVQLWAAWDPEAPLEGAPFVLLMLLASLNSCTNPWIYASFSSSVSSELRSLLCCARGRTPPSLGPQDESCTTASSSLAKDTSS

Structure (SMILES): Nc1nc(N)c2nc(-c3ccccc3)c(N)nc2n1
- AC50 [1]: > 30 µM
- AC50 (Vasopressin V2 receptor): > 30 µM
- AC50 (Adenosine receptor A3): > 30 µM
- AC50 (Thromboxane A2 receptor): > 30 µM
- AC50 (Glucocorticoid receptor): > 30 µM
- AC50 [2]: > 30 µM
- AC50 (Vasopressin V1a receptor): > 30 µM

Structure (SMILES): CC(C)C(=O)Nc1ccc([N+](=O)[O-])c(C(F)(F)F)c1 [FLUTAMIDE]
- AC50 [1]: > 30 µM
- AC50 (Vasopressin V2 receptor): > 30 µM
- AC50 (Adenosine receptor A3): 20.3 µM
- AC50 (Thromboxane A2 receptor): 18.4 µM
- AC50 [2]: > 30 µM
- AC50 (Vasopressin V1a receptor): > 30 µM

Structure (SMILES): CS(=O)(=O)c1ccc([C@@H](O)[C@@H](CO)NC(=O)C(Cl)Cl)cc1 [THIAMPHENICOL]
- AC50 [1]: > 30 µM
- AC50 (Vasopressin V2 receptor): > 30 µM
- AC50 (Adenosine receptor A3): > 30 µM
- AC50 (Thromboxane A2 receptor): > 30 µM
- AC50 (Glucocorticoid receptor): > 30 µM
- AC50 [2]: > 30 µM
- AC50 (Vasopressin V1a receptor): > 30 µM

Structure (SMILES): CN(CCOc1ccc(NS(C)(=O)=O)cc1)CCc1ccc(NS(C)(=O)=O)cc1 [DOFETILIDE]
- AC50 [1]: > 30 µM
- AC50 (Vasopressin V2 receptor): > 30 µM
- AC50 (Adenosine receptor A3): > 30 µM
- AC50 (Thromboxane A2 receptor): > 30 µM
- AC50 (Glucocorticoid receptor): > 30 µM
- AC50 [2]: > 30 µM
- AC50 (Vasopressin V1a receptor): > 10 µM

Structure (SMILES): CC(C(=O)O)c1ccc(N2CC=CC2)c(Cl)c1 (stereo unspecified) [PIRPROFEN]
- AC50 [1]: > 30 µM
- AC50 (Vasopressin V2 receptor): > 30 µM
- AC50 (Adenosine receptor A3): > 30 µM
- AC50 (Thromboxane A2 receptor): > 30 µM
- AC50 (Glucocorticoid receptor): > 30 µM
- AC50 [2]: > 30 µM
- AC50 (Vasopressin V1a receptor): > 10 µM

Structure (SMILES): C[C@H]1O[C@H](O[C@H]2[C@H](O)[C@@H](O)[C@@H](O[C@H]3[C@H](O)[C@@H](O)C(O)O[C@@H]3CO)O[C@@H]2CO)[C@H](O)[C@@H](O)[C@@H]1N[C@H]1C=C(CO)[C@@H](O)[C@H](O)[C@H]1O (stereo partly specified) [ACARBOSE]
- AC50 [1]: > 30 µM
- AC50 (Vasopressin V2 receptor): > 30 µM
- AC50 (Adenosine receptor A3): > 30 µM
- AC50 (Thromboxane A2 receptor): > 30 µM
- AC50 (Glucocorticoid receptor): > 30 µM
- AC50 [2]: > 30 µM
- AC50 (Vasopressin V1a receptor): > 30 µM

Structure (SMILES): CCc1ccc(CCOc2ccc(CC3SC(=O)NC3=O)cc2)nc1 (stereo unspecified) [PIOGLITAZONE]
- AC50 [1]: > 30 µM
- AC50 (Vasopressin V2 receptor): > 30 µM
- AC50 (Adenosine receptor A3): > 30 µM
- AC50 (Thromboxane A2 receptor): 9.68 µM
- AC50 (Glucocorticoid receptor): > 30 µM
- AC50 [2]: > 30 µM
- AC50 (Vasopressin V1a receptor): > 30 µM

Structure (SMILES): Oc1ncnc2[nH]ncc12 [ALLOPURINOL]
- AC50 [1]: > 30 µM
- AC50 (Vasopressin V2 receptor): > 30 µM
- AC50 (Adenosine receptor A3): > 30 µM
- AC50 (Thromboxane A2 receptor): > 30 µM
- AC50 (Glucocorticoid receptor): > 30 µM
- AC50 [2]: > 30 µM
- AC50 (Vasopressin V1a receptor): > 10 µM

Structure (SMILES): NC(=O)c1cnccn1 [PYRAZINAMIDE]
- AC50 [1]: > 30 µM
- AC50 (Vasopressin V2 receptor): > 30 µM
- AC50 (Adenosine receptor A3): > 30 µM
- AC50 (Thromboxane A2 receptor): > 30 µM
- AC50 (Glucocorticoid receptor): > 30 µM
- AC50 [2]: > 30 µM
- AC50 (Vasopressin V1a receptor): > 30 µM

Structure (SMILES): CC(C)OC(=O)[C@H](C)N[P@](=O)(OC[C@H]1O[C@@H](n2ccc(=O)[nH]c2=O)[C@](C)(F)[C@@H]1O)Oc1ccccc1 [SOFOSBUVIR]
- AC50 (Adenosine receptor A3): > 30 µM
- AC50 (Thromboxane A2 receptor): > 30 µM
- AC50 [2]: > 30 µM

Structure (SMILES): CC(=O)OC[C@H]1O[C@@H](n2ccc(=O)[nH]c2=O)[C@H](OC(C)=O)[C@@H]1OC(C)=O [URIDINE TRIACETATE]
- AC50 (Adenosine receptor A3): > 30 µM
- AC50 (Thromboxane A2 receptor): > 30 µM
- AC50 [2]: > 30 µM

Structure (SMILES): CN1CCCC(CN2c3ccccc3Sc3ccccc32)C1 (stereo unspecified) [MEPAZINE]
- AC50 (Adenosine receptor A3): > 30 µM
- AC50 (Thromboxane A2 receptor): > 10 µM
- AC50 [2]: > 30 µM

Structure (SMILES): CN(C)C(=O)Oc1ccc[n+](C)c1 [PYRIDOSTIGMINE]
- AC50 (Adenosine receptor A3): > 30 µM
- AC50 (Thromboxane A2 receptor): > 30 µM
- AC50 [2]: > 30 µM

Structure (SMILES): CCO/N=C(\C(=O)N[C@@H]1C(=O)N2C(C(=O)[O-])=C(Sc3nc(-c4cc[n+](C)cc4)cs3)CS[C@H]12)c1nsc(N)n1 [CEFTAROLINE]
- AC50 (Adenosine receptor A3): > 30 µM
- AC50 (Thromboxane A2 receptor): > 30 µM
- AC50 [2]: > 30 µM

Structure (SMILES): CCOC(=O)N[C@@H]1CC[C@@H]2[C@@H](C1)C[C@H]1C(=O)O[C@H](C)[C@H]1[C@H]2/C=C/c1ccc(-c2cccc(F)c2)cn1 [VORAPAXAR]
- AC50 (Adenosine receptor A3): 2.43 µM
- AC50 (Thromboxane A2 receptor): > 10 µM
- AC50 [2]: > 30 µM

Structure (SMILES): CC(O)CO (stereo unspecified) [PROPYLENE GLYCOL]
- AC50 (Adenosine receptor A3): > 30 µM
- AC50 (Thromboxane A2 receptor): > 30 µM
- AC50 [2]: > 30 µM

Structure (SMILES): OC[C@@H](O)[C@@H](O)[C@H](O)[C@H](O)CO [MANNITOL]
- AC50 (Adenosine receptor A3): > 30 µM
- AC50 (Thromboxane A2 receptor): > 30 µM
- AC50 [2]: > 30 µM
